This passage reports IC50 results from patent US5397781A, “Pyrimidine derivatives” (Mochida Pharmaceutical Company, Limited, priority 1992, dated 1995).

The target of the experiment is T1, ACAT (Rattus norvegicus, UniProt Q7TQM4).
T1 construct: Liver microsomes as an enzyme sample of ACAT were prepared from overnight-fasted male rats; from tissue; host or cells: liver of overnight-fasted male rats, 6 weeks old; microsomes
T1 sequence (Q7TQM4 1-524): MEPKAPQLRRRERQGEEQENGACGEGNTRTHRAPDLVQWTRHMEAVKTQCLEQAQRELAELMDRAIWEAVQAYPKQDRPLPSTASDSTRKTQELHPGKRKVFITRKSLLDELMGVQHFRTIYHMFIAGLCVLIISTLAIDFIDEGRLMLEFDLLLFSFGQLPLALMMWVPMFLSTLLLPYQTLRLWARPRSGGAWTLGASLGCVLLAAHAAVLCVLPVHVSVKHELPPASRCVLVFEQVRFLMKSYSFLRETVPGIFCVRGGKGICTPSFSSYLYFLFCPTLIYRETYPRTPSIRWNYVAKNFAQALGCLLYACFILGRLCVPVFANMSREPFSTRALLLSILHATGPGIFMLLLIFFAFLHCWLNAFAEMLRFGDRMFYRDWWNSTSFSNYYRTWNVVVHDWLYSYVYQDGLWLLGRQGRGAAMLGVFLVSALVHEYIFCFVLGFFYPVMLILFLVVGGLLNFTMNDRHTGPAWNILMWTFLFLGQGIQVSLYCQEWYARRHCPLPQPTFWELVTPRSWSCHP
Put plainly: Inhibitory effect on microsomal ACAT activity in rat liver. It is filed as biochemical. The note with it: rat liver microsomes; read-out: IC50 (50% inhibition of cholesterol esterification). A general note: Liver microsomes are a subcellular fraction often used to study metabolism.
With `CCCN(CCCCC(=O)Nc1c(SC)nc(C)nc1N(CC)Cc1ccccc1)c1ccccc1` [Example 248, N-[4-(N-benzyl-N-ethylamino)-2-methyl-6-methylthiopyrimidin-5-yl]-5-(N-phenyl-N-propylamino)pentanamide], the IC50 was determined as 32 nM.

Regarding `CCCCN(CCCC)c1ncnc(SC)c1NC(=O)CCCCN(CCC)c1ccccc1` [Example 250, N-[4-(N,N-dibutylamino)-6-methylthiopyrimidin-5-yl]-5-(N-phenyl-N-propylamino)pentanamide], the IC50 amounted to 9.6 nM.

Consider `CCCCCCN(CCCCC(=O)Nc1c(SC)nc(C)nc1N(CC)CC)c1ccccc1` [Example 252, N-[4-(N,N-diethylamino)-2-methyl-6-methylthiopyrimidin-5-yl]-5-(N-hexyl-N-phenylamino)pentanamide], for which the IC50 turned out to be 33 nM. As to `CCCSc1nc(C)nc(N(CCC)c2ccccc2)c1NC(=O)CCCN(CCC)c1ccccc1` [Example 256, N-[2-methyl-4-(N-phenyl-N-propylamino)-6-propylthiopyrimidin-5-yl]-4-(N-phenyl-N-propylamino)butanamide], the IC50 is 100 nM. As to `CCCCCCSc1nc(C)nc(N(CCC)c2ccccc2)c1NC(=O)CCCN(CCC)c1ccccc1` [Example 257, N-[4-hexylthio-2-methyl-6-(N-phenyl-N-propylamino)pyrimidin-5-yl]-4-(N-phenyl-N-propylamino)butanamide], the IC50 worked out at 220 nM.

For `CCCN(CCCC(=O)Nc1c(SCc2ccccc2)nc(C)nc1N(CCC)c1ccccc1)c1ccccc1` [Example 258, N-[4-benzylthio-2-methyl-6-(N-phenyl-N-propylamino)pyrimidin-5-yl]-4-(N-phenyl-N-propylamino)butanamide], the IC50 came to 230 nM. Take `CCCN(CCCC(=O)Nc1c(SCc2ccccc2)nc(C)nc1N(CC)CC)c1ccccc1` [Example 259, N-[4-benzylthio-6-(N,N-dietylamino)-2-methylpyrimidin-5-yl]-4-(N-phenyl-N-propylamino)butanamide]: the IC50 worked out at 76 nM. As for `CCCCCCN(CCCC(=O)Nc1c(SCCC)nc(C)nc1N(CC)CC)c1ccccc1` [Example 261, N-[4-(N,N-dietylamino)-2-methyl-6-propylthiopyrimidin-5-yl]-4-(N-hexyl-N-phenylamino)butanamide], the IC50 was 23 nM. The same measure for `CCCN(CCCC(=O)Nc1c(OCc2ccccc2)nc(C)nc1C(C)C)c1ccccc1` [Example 263, N-(4-benzyloxy-6-isopropyl-2-methylpyrimidin-5-yl)-4-(N-phenyl-N-propylamino)butanamide]: 100 nM; for `CCCN(CCCC(=O)Nc1c(C(C)C)nc(C)nc1N(CC)CC)c1ccccc1` [Example 266, N-[4-(N,N-diethylamino)-6-isopropyl-2-methylpyrimidin-5-yl]-4-(N-phenyl-N-propylamino)butanamide]: 170 nM.

For `CCCN(CCCC(=O)Nc1c(SC)nc(C)nc1C(C)C)c1ccccc1` [Example 268, N-(4-isopropyl-2-methyl-6-methylthiopyrimidin-5-yl)-4-(N-phenyl-N-propylamino)butanamide], the IC50 is 56 nM. For `CCCCCCN(CCCC(=O)Nc1c(SC)nc(C)nc1N(CC)CC)c1ccc(Br)cc1` [Example 272, 4-[N-(4-bromophenyl)-N-hexylamino]-N-[4-(N,N-diethylamino)-2-methyl-6-methylthiopyrimidin-5yl]butanamide], the half-maximal inhibitory concentration (IC50) worked out at 37 nM.

Usually IC50 stands for the concentration that inhibits the measured activity by half.
